From paper PMC6468809, “Structural Analysis of the 42 kDa Parvulin of Trypanosoma brucei” (Biomolecules, 2019)
*1 amine or outer side, *2 acyl side, *3 side chain or, on linkers, in order; H or OH if unused. Where a SMILES comes first, the peptide text is derived from it. [ ]: non-standard residue; d: D form. pT = C[C@@H](OP(=O)(O)O)[C@H](N)C(=O)O; Suc = O=C(CCC(=O)[*:2])[*:1]

What was measured:
TbPar42-PPIase = experiment: EXSY experiment, cis/trans isomerisation of peptide; type: biochemical, Trypanosoma brucei; details: 2.4 mM peptide, 50 μM TbPar42-PPIase, 25 mM potassium phosphate pH 6.26, 100% D2O, 27 °C, mixing time 400 ms
TbPar42-PPIase (264-383) = TbPar42-PPIase (264-383) (Trypanosoma brucei brucei, UniProt Q57XM6); experiment: biochemical
Sequence of TbPar42-PPIase (264-383) (Q57XM6 264-383): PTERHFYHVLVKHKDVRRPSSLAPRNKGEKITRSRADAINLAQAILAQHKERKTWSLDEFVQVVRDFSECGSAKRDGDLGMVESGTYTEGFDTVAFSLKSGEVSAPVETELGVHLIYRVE

hPin1 = experiment: EXSY experiment, cis/trans isomerisation of peptide; type: biochemical, human; details: 2.4 mM peptide, 50 μM hPin-PPIase, 25 mM potassium phosphate pH 6.26, 100% D2O, 27 °C, mixing time 400 ms
TbPar42 NterFHA (1-177) = TbPar42 NterFHA (1-177) (Trypanosoma brucei brucei, UniProt Q57XM6); experiment: biochemical
Sequence of TbPar42 NterFHA (1-177) (Q57XM6 1-177): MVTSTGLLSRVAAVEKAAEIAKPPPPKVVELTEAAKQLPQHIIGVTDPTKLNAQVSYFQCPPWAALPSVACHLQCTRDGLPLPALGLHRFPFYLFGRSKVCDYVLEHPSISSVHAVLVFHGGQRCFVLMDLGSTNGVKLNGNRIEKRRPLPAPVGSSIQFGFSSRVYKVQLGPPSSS
Protocol: After each step a ^1H-^15N-HSQC or SOFAST spectrum was recorded on a 700 MHz Ultrashield NMR spectrometer at 27 °C. The spectra were analyzed with the CcpNmr Analysis software, and the chemical shift perturbations were calculated with following equation [22]: Δδtotal=(ΔδH)^2+(0.154·ΔδN)²
Residues with chemical shifts ≥0.015 ppm (PPIase) or ≥0.04 ppm (NterFHA) were represented on the related protein structure using PyMOL [23]. For titrations of the peptide Ala-Glu-Ala-pThr-Glu-Ala-Xaa (Xaa representing Asp, Ile, Val, Ser, or Gln) to the NterFHA domain, the protein concentration was 250 µM and the peptides were titrated to a final concentration of 8 mM.

Compound: C[C@H](NC(=O)[C@@H]1CCCN1C(=O)[C@@H](NC(=O)[C@H](C)NC(=O)CCC(=O)O)[C@@H](C)OP(=O)(O)O)C(N)=O [Suc-Ala-pThr-Pro-Ala-NH2] (Suc-A[pT]PA-NH2)
- isomerase activity on the peptide (TbPar42-PPIase): no isomerase activity could be detected
- Kd (TbPar42-PPIase (264-383)): ~10 mM
- cis/trans exchange peaks of the peptide (EXSY) (hPin1): exchange peaks generated exclusively in B
- Kd (TbPar42 NterFHA (1-177)): ~4 mM
